Reference: article PMC4965013, “Open Source Drug Discovery with the Malaria Box Compound Collection for Neglected Diseases and Beyond” (PLoS Pathogens, 2016)
≈ marks a conversion by molar mass, not a printed value.

Legend:
PK7 = test system: PK7; set-up: method as in ref [25] (a number printed in a supplementary file, which may have a reference list of its own: not looked up in the article's list); conditions: control 100 µM; compounds 1 µM; ref [25]; cited from earlier work
cruzain = cruzain (Trypanosoma cruzi, UniProt P25779); test: cruzain Z-FR-AMC cleavage; assay type: biochemical; conditions: 500 nM
Chain of cruzain (P25779 123-337): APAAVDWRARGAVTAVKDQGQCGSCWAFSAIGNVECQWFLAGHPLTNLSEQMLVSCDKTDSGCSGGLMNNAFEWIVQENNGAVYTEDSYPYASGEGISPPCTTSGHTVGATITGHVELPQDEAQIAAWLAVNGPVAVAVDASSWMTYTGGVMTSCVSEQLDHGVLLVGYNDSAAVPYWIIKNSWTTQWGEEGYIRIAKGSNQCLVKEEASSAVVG
Procedure: (§1) Cysteine Protease Inhibitors Cruzain and Rhodesain, Ferreira group (data presented first in this paper). Recombinant cruzain was gently provided by Allison Doak and Dr. Brian Shoichet (University of California, San Francisco), while rhodesain was kindly provided by Dr. Conor Caffrey (Center for Discovery and Innovation in Parasitic Diseases, Skaggs School of Pharmacy and Pharmaceutical Sciences, University of California San Diego). Cruzain and rhodesain activity were measured as previously described, (Ferreira et al., 2010) by monitoring the cleavage of the fluorogenic substrate Z-Phe-Argaminomethylcoumarin (Z-FR-AMC) in a Synergy 2 (Biotek), from the Center of Flow Cytometry and Fluorimetry at the Biochemistry and Immunology Department (Universidade Federal de Minas Gerais, UFMG). Formation of fluorescent 4-amino-7-metyhlcoumarin was measured employing 340 nm wavelength for excitation and 440 nm for emission. […] Initially compounds were pre-incubated with the enzyme for 10 minutes in 100 µL assay buffer, then 100 µL of 5 μM substrate solution was added and the reaction was immediately monitored. Assays were performed in duplicate, followed for 5 min and activity was calculated based on initial velocities. […] Reported values refer to average and standard errors calculated based on duplicates. […] Data was analyzed with Prism 5.0 (GraphPad). […]

rhodesain = rhodesain (Trypanosoma brucei rhodesiense, UniProt Q95PM0); test: rhodesain Z-FR-AMC cleavage; assay type: biochemical; conditions: 500 nM
Chain of rhodesain (Q95PM0 entry or part of it): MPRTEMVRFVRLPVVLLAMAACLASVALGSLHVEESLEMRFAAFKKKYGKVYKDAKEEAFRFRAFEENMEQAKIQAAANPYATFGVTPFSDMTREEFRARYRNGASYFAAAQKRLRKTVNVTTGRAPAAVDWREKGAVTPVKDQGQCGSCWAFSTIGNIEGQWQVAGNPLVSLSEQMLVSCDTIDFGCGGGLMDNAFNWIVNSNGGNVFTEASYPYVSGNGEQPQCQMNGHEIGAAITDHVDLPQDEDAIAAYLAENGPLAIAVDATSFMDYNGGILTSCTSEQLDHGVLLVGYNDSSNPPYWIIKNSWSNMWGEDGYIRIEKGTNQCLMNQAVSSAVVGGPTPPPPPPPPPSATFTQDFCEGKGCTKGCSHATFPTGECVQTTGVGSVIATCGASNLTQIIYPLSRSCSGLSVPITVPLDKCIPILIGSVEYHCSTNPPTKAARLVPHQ
Procedure: as §1

P. falciparum HB3 = test: Stage-specificity / mitochondrial integrity image assay Ayong; assay type: cell-based; conditions: 10µM
MAPK2 = test system: MAPK2; set-up: method as in ref [25] (a number printed in a supplementary file, which may have a reference list of its own: not looked up in the article's list); conditions: control 100 µM; compounds 1 µM; ref [25]; cited from earlier work
[1] = test system: Naegleria fowleri trophozoites; test: Naegleria fowleri CellTiter-Glo; assay type: cell-based; conditions: Naegleria fowleri
Description: Columns CY-CZ: Kyle group (data presented first in this paper). Naegleria fowleri trophozoite growth inhibition. Methods: The CellTiter-Glo (CTG) 2.0 luminescent assay is a quantitative assay that assesses the presence of cellular ATP in lysed cells, displaying an output in Relative Light Units (RLU’s). This was previously standardised, for the growth and development of Naegleria fowleri trophozoites in-vitro to assess drug susceptibility on this parasite. […] These included two drug-like molecules MMV665807 (St. Jude’s Children’s Hospital) and MMV665979 (The Genomics Institute of the Novartis Research Foundation - GNF) and two Probe-like molecules, MMV006203 (GNF) & MMV006172 (GNF; GlaxoSmithKline - GSK). […] However, these Malaria Box compounds were all toxic to zebrafish and mammalian cells.

Staphylococcus aureus = test: S. aureus agar spot / MIC Baker; conditions: read-out: Minimum Inhibitory Concentrations (MIC) S. aureus
[2] = test system: Acinetobacter baumannii ATCC 19606; test: A. baumannii agar spot / MIC Baker; conditions: ATCC19606, read-out: Minimum Inhibitory Concentrations (MIC) A. baumanii
[3] = target: Pf ProRS Prolyl-tRNA synthetase (Plasmodium falciparum, UniProt Q8I5R7); test: PfProRS Kinase-Glo aminoacylation; conditions: control 1µM; compounds 10 µM
Chain of Pf ProRS Prolyl-tRNA synthetase (Q8I5R7 8-746): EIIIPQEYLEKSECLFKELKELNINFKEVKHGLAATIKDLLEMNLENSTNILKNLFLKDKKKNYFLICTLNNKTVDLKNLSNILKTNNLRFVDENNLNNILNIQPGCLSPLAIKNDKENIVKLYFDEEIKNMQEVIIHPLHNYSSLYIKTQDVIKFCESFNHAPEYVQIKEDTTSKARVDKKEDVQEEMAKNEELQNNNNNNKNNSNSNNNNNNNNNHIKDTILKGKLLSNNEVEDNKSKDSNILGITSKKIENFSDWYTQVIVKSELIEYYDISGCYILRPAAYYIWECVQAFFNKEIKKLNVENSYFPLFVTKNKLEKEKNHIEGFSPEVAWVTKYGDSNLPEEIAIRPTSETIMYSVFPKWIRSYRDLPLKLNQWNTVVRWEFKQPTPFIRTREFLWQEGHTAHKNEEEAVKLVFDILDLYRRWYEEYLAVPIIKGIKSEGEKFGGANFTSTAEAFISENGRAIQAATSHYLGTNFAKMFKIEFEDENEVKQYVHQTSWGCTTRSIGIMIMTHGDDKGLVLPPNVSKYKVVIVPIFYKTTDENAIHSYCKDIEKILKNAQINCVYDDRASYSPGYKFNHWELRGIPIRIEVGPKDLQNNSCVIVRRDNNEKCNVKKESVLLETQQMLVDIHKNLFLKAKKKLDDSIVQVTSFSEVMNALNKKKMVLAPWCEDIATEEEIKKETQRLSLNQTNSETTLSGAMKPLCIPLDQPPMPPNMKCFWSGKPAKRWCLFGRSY

[4] = target: Pf KRS Lysyl-tRNA Synthetase (Plasmodium falciparum, UniProt Q8IDJ8); test: PfKRS Kinase-Glo aminoacylation; conditions: control 1µM; compounds 10 µM
Chain of Pf KRS Lysyl-tRNA Synthetase (Q8IDJ8 entry or part of it): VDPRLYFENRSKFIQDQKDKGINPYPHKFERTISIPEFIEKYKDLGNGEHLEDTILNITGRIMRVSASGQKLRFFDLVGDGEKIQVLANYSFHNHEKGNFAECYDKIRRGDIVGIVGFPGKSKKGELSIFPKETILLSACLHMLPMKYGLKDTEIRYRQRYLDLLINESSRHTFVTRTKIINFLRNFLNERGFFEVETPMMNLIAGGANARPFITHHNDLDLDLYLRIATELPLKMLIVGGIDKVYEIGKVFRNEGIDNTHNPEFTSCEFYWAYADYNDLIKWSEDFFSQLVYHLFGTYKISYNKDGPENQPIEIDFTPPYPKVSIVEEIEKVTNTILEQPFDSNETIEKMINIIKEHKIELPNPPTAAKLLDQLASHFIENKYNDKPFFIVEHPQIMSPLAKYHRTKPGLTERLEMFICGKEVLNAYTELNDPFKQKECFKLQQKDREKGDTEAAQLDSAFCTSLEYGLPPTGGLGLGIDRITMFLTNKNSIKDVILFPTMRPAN

CC(C)(C)n1nc(-c2cccc3ccccc23)c2c(N)ncnc21 [1NA-PP1]
PK7 % inhibition (PK7): > 80%

CC(C)C[C@H](NC(=O)[C@H]1O[C@@H]1C(=O)O)C(=O)NCCCCN=C(N)N (relative stereo) [E-64, trans-Epoxysuccinyl-L-leucylamido-(4-guanidino) butane]
cruzain % inhibition (cruzain): approximately 100% | rhodesain % inhibition (rhodesain): approximately 100% | Effects on asexual life cycle progression (treatment at ER, LR, T, S; merozoites; mitochondrial integrity) (P. falciparum HB3): X-S-S-X-o-o

Nc1ncnc2c1ncn2[C@@H]1O[C@H](COP(=O)(O)OP(=O)(O)NP(=O)(O)O)[C@@H](O)[C@H]1O [AMP-PNP]
MAPK2 % inhibition (MAPK2): > 80%

O=C(Nc1cccc(C(F)(F)F)c1)c1cc(Cl)ccc1O [MMV665807]
EC50 [1]: 1.09 µM | MIC (Staphylococcus aureus): 1.25 to 5 µM (≈ 0.395 to 1.58 µg/mL) | MIC [2]: 1.25 to 5 µM (≈ 0.395 to 1.58 µg/mL)

O=C(CC1NCCCC1O)Cn1cnc2cc(Br)c(Cl)cc2c1=O (stereo not shown) [halofuginone]
PfProRS % inhibition [3]: 100%

C[C@H]1CCC[C@H](C[C@H]2Cc3cc(O)cc(O)c3C(=O)O2)O1 [Cladosporin]
PfKRS % inhibition [4]: 100%
